Numbers after ± are expanded uncertainties.
Assay: xn = mol fraction of the nth substance listed
Details: 308.15 K, Liquid

CCCCCCCCC [nonane] + C1CCCCC1
Details | mass density [kg/m3]
100 kPa, x2 = 0 | 705.8 ± 0.7
100 kPa, x2 = 0.09303 | 708.8 ± 0.7
100 kPa, x2 = 0.2009 | 712.6 ± 0.7
100 kPa, x2 = 0.3051 | 716.8 ± 0.7
100 kPa, x2 = 0.417 | 721.7 ± 0.6
100 kPa, x2 = 0.512 | 726.3 ± 0.6
100 kPa, x2 = 0.5996 | 731.2 ± 0.6
100 kPa, x2 = 0.7052 | 737.9 ± 0.6
100 kPa, x2 = 0.7993 | 745 ± 0.6
100 kPa, x2 = 0.9039 | 754 ± 0.5
101 kPa, x2 = 0 | 706.11 ± 0.68
101 kPa, x2 = 0.1022 | 709.37 ± 0.66
101 kPa, x2 = 0.1548 | 711.18 ± 0.66
101 kPa, x2 = 0.2009 | 712.84 ± 0.65
101 kPa, x2 = 0.2591 | 715.05 ± 0.64
101 kPa, x2 = 0.3306 | 717.98 ± 0.63
101 kPa, x2 = 0.4003 | 721.05 ± 0.61
101 kPa, x2 = 0.4596 | 723.89 ± 0.6
101 kPa, x2 = 0.5321 | 727.62 ± 0.59
101 kPa, x2 = 0.612 | 732.19 ± 0.58
101 kPa, x2 = 0.6649 | 735.49 ± 0.57
101 kPa, x2 = 0.7224 | 739.39 ± 0.56
101 kPa, x2 = 0.8047 | 745.58 ± 0.54
101 kPa, x2 = 0.8686 | 751 ± 0.53
101 kPa, x2 = 0.9405 | 757.89 ± 0.52
2130 kPa, x2 = 0 | 707.5 ± 0.8
2130 kPa, x2 = 0.09303 | 710.5 ± 0.8
2130 kPa, x2 = 0.2009 | 714.3 ± 0.8
2130 kPa, x2 = 0.3051 | 718.5 ± 0.7
2130 kPa, x2 = 0.417 | 723.4 ± 0.7
2130 kPa, x2 = 0.512 | 728 ± 0.7
2130 kPa, x2 = 0.5996 | 733 ± 0.7
2130 kPa, x2 = 0.7052 | 739.7 ± 0.7
2130 kPa, x2 = 0.7993 | 746.8 ± 0.6
2130 kPa, x2 = 0.9039 | 755.7 ± 0.6
4150 kPa, x2 = 0 | 709.2 ± 0.9
4150 kPa, x2 = 0.09303 | 712.2 ± 0.9
4150 kPa, x2 = 0.2009 | 716 ± 0.8
4150 kPa, x2 = 0.3051 | 720.2 ± 0.8
4150 kPa, x2 = 0.417 | 725.1 ± 0.8
4150 kPa, x2 = 0.512 | 729.7 ± 0.8
4150 kPa, x2 = 0.5996 | 734.7 ± 0.8
4150 kPa, x2 = 0.7052 | 741.5 ± 0.7
4150 kPa, x2 = 0.7993 | 748.5 ± 0.7
4150 kPa, x2 = 0.9039 | 757.5 ± 0.7
6180 kPa, x2 = 0 | 710.9 ± 1
6180 kPa, x2 = 0.09303 | 713.9 ± 0.9
6180 kPa, x2 = 0.2009 | 717.7 ± 0.9
6180 kPa, x2 = 0.3051 | 721.9 ± 0.9
6180 kPa, x2 = 0.417 | 726.8 ± 0.9
6180 kPa, x2 = 0.512 | 731.4 ± 0.9
6180 kPa, x2 = 0.5996 | 736.4 ± 0.8
6180 kPa, x2 = 0.7052 | 743.2 ± 0.8
6180 kPa, x2 = 0.7993 | 750.3 ± 0.8
6180 kPa, x2 = 0.9039 | 759.3 ± 0.8
8210 kPa, x2 = 0 | 712.5 ± 1
8210 kPa, x2 = 0.09303 | 715.5 ± 1
8210 kPa, x2 = 0.2009 | 719.4 ± 1
8210 kPa, x2 = 0.3051 | 723.6 ± 1
8210 kPa, x2 = 0.417 | 728.5 ± 1
8210 kPa, x2 = 0.512 | 733.1 ± 0.9
